Data: US20080039438A1, “1B-Methylcarbapenem Derivative and Process for the Preparation Thereof” (Korea Institute of Science and Technology, priority 2004, published 2008)
Values after ≈ are worked out from the molar mass of the structure shown.

Tests used:
Format in all cases: cell-based
Providentia sp. = assay: MIC against clinically isolated aerobic Gram-negative strains; conditions: 13 strains
Morganella morganii = assay: as above; conditions: 15 strains
Clostridium perfringens = assay: microbe, parasite or virus in culture
Bacteroides fragilis = assay: MIC against clinically isolated anaerobic Gram-negative strains; conditions: 34 strains
Serratia marcescens = assay: MIC against clinically isolated aerobic Gram-negative strains; conditions: 14 strains
Staphylococcus coagulase = assay: MIC against clinically isolated aerobic Gram-positive strains; conditions: Staphylococcus
Proteus vulgaris = assay: MIC against clinically isolated aerobic Gram-negative strains; conditions: 15 strains
Clostridium difficile = assay: MIC against clinically isolated anaerobic Gram-positive strains; conditions: 15 strains
Method: The in vitro antibacterial activities of the sodium 3-carboxylate compound of the present invention prepared in the above Example were measured against standard strains (Table 1), clinically isolated aerobic Gram-positive strains (Table 2), clinically isolated aerobic Gram-negative strains (Table 3), clinically isolated anaerobic Gram-positive strains (Table 4) and clinically isolated anaerobic Gram-negative strains (Table 5) using Gram-positive bacteria such as Streptococcus and Staphylococcus, Gram-negative bacteria such as Escherichia, Salmonella, Krebsiella and Enterobacter. Imipenem (IPM), meropenem (MPM) and ertapenem (EPM) were used as control groups.
The results are shown in Tables 1 to 5, and MIC50 and MIC90 represent the concentrations at which the test strain's growth was inhibited to the extents of 50% and 90%, respectively.

Citrobacter freundii = assay: MIC against clinically isolated aerobic Gram-negative strains; conditions: 14 strains
Enterococcus faecalis = assay: MIC against clinically isolated aerobic Gram-positive strains; conditions: 30 strains
Enterobacter aerogenes = assay: MIC against clinically isolated aerobic Gram-negative strains; conditions: 14 strains
Peptostreptococcus spp. = assay: MIC against clinically isolated anaerobic Gram-positive strains; conditions: 27 strains
Enterobacter cloacae = assay: MIC against clinically isolated aerobic Gram-negative strains; conditions: 29 strains
Enterococcus faecium = assay: MIC against clinically isolated aerobic Gram-positive strains; conditions: clinically isolated Enterococcus faecium, 29 strains
Klebsiella oxytoca = assay: MIC against clinically isolated aerobic Gram-negative strains; conditions: 15 strains
Pseudomonas aeruginosa = assay: as above; conditions: 60 strains
[1] = test system: Bacteroides thetaiotaomicron; assay: MIC against clinically isolated anaerobic Gram-negative strains
Moraxella catarrhalis = assay: MIC against clinically isolated aerobic Gram-negative strains; conditions: 24 strains
Bacteroides spp. = assay: MIC against clinically isolated anaerobic Gram-negative strains; conditions: 11 strains
Escherichia coli = assay: MIC against clinically isolated aerobic Gram-negative strains; conditions: 30 strains
Streptococcus pyogenes = assay: MIC against clinically isolated aerobic Gram-positive strains; conditions: 15 strains
Klebsiella pneumoniae = assay: MIC against clinically isolated aerobic Gram-negative strains; conditions: 30 strains
Streptococcus agalactiae = assay: MIC against clinically isolated aerobic Gram-positive strains; conditions: 15 strains
Proteus mirabilis = assay: MIC against clinically isolated aerobic Gram-negative strains; conditions: 15 strains
Streptococcus pneumoniae = assay: MIC against clinically isolated aerobic Gram-positive strains; conditions: 22 strains
Acinetobacter baumannii = assay: MIC against clinically isolated aerobic Gram-negative strains; conditions: 30 strains
Haemophilus influenzae = assay: as above; conditions: 24 strains
[2] = test system: Methicillin-sensitive Staphylococcus aureus; assay: MIC against clinically isolated aerobic Gram-positive strains; conditions: 33 strains

SMILES: C[C@@H](O)[C@H]1C(=O)N2C(C(=O)O)=C(S[C@@H]3CN[C@H](C(=O)Nc4cccc(C(=O)O)c4)C3)[C@H](C)[C@H]12 [EPM, ertapenem]
- MIC50 (Providentia sp.): 0.03 µg/mL (≈ 0.0631 µM)
- MIC90 (Providentia sp.): 16 µg/mL (≈ 33.6 µM)
- MIC Range (Providentia sp.): 0.008 to 16 µg/mL
- MIC50 (Morganella morganii): 0.008 µg/mL (≈ 0.0168 µM)
- MIC90 (Morganella morganii): 0.03 µg/mL (≈ 0.0631 µM)
- MIC Range (Morganella morganii): 0.008 to 0.03 µg/mL
- MIC50 (Clostridium perfringens; Clostridium perfringens): 0.06 µg/mL (≈ 0.126 µM)
- MIC90 (Clostridium perfringens; Clostridium perfringens): 0.12 µg/mL (≈ 0.252 µM)
- MIC Range (Clostridium perfringens; clinically isolated anaerobic Clostridium perfringens, 13 strains): 0.06 to 0.12 µg/mL
- MIC50 (Bacteroides fragilis): 0.25 µg/mL (≈ 0.526 µM)
- MIC90 (Bacteroides fragilis): 1 µg/mL (≈ 2.1 µM)
- MIC Range (Bacteroides fragilis): 0.12 to 4 µg/mL
- MIC50 (Serratia marcescens): 0.06 µg/mL (≈ 0.126 µM)
- MIC90 (Serratia marcescens): 16 µg/mL (≈ 33.6 µM)
- MIC Range (Serratia marcescens): 0.015 to 16 µg/mL
- MIC50 (Staphylococcus coagulase): 0.25 µg/mL (≈ 0.526 µM)
- MIC90 (Staphylococcus coagulase): 0.5 µg/mL (≈ 1.05 µM)
- MIC50 (Proteus vulgaris): 0.015 µg/mL (≈ 0.0315 µM)
- MIC90 (Proteus vulgaris): 0.015 µg/mL (≈ 0.0315 µM)
- MIC Range (Proteus vulgaris): 0.008 to 0.03 µg/mL
- MIC Range (Clostridium difficile): 4 to 8 µg/mL
- MIC50 (Clostridium difficile; Clostridioides difficile): 4 µg/mL (≈ 8.41 µM)
- MIC90 (Clostridium difficile; Clostridioides difficile): 8 µg/mL (≈ 16.8 µM)
- MIC50 (Citrobacter freundii): 0.008 µg/mL (≈ 0.0168 µM)
- MIC90 (Citrobacter freundii): 0.25 µg/mL (≈ 0.526 µM)
- MIC Range (Citrobacter freundii): 0.008 to 0.5 µg/mL
- MIC50 (Enterococcus faecalis): 16 µg/mL (≈ 33.6 µM)
- MIC90 (Enterococcus faecalis): 32 µg/mL (≈ 67.3 µM)
- MIC Range (Enterococcus faecalis): 4 to 64 µg/mL
- MIC Range (Enterobacter aerogenes): 0.008 to 0.5 µg/mL
- MIC50 (Enterobacter aerogenes; Klebsiella aerogenes): 0.06 µg/mL (≈ 0.126 µM)
- MIC90 (Enterobacter aerogenes; Klebsiella aerogenes): 0.5 µg/mL (≈ 1.05 µM)
- MIC50 (Peptostreptococcus spp.): 0.12 µg/mL (≈ 0.252 µM)
- MIC90 (Peptostreptococcus spp.): 4 µg/mL (≈ 8.41 µM)
- MIC Range (Peptostreptococcus spp.): 0.06 to 4 µg/mL
- MIC50 (Enterobacter cloacae): 0.12 µg/mL (≈ 0.252 µM)
- MIC90 (Enterobacter cloacae): 2 µg/mL (≈ 4.21 µM)
- MIC Range (Enterobacter cloacae): 0.015 to 2 µg/mL
- MIC Range (Enterococcus faecium): 32 to 128 µg/mL
- MIC50 (Enterococcus faecium; read-out: MIC50): 128 µg/mL (≈ 269 µM)
- MIC90 (Enterococcus faecium; read-out: MIC90): 128 µg/mL (≈ 269 µM)
- MIC50 (Klebsiella oxytoca): 0.008 µg/mL (≈ 0.0168 µM)
- MIC90 (Klebsiella oxytoca): 0.008 µg/mL (≈ 0.0168 µM)
- MIC Range (Klebsiella oxytoca): 0.008 to 0.25 µg/mL
- MIC50 (Pseudomonas aeruginosa): 32 µg/mL (≈ 67.3 µM)
- MIC90 (Pseudomonas aeruginosa): 128 µg/mL (≈ 269 µM)
- MIC Range (Pseudomonas aeruginosa): 1 to 128 µg/mL
- MIC50 ([1]; Bacteroides thetaiotaomicron): 2 µg/mL (≈ 4.21 µM)
- MIC90 ([1]; Bacteroides thetaiotaomicron): 2 µg/mL (≈ 4.21 µM)
- MIC Range ([1]; clinically isolated anaerobic Bacteroides thetaiotaomicron, 15 strains): 0.25 to 8 µg/mL
- MIC50 (Moraxella catarrhalis): 0.015 µg/mL (≈ 0.0315 µM)
- MIC90 (Moraxella catarrhalis): 0.03 µg/mL (≈ 0.0631 µM)
- MIC Range (Moraxella catarrhalis): 0.008 to 0.12 µg/mL
- MIC50 (Bacteroides spp.): 1 µg/mL (≈ 2.1 µM)
- MIC90 (Bacteroides spp.): 2 µg/mL (≈ 4.21 µM)
- MIC Range (Bacteroides spp.): 0.5 to 2 µg/mL
- MIC50 (Escherichia coli): 0.008 µg/mL (≈ 0.0168 µM)
- MIC90 (Escherichia coli): 0.12 µg/mL (≈ 0.252 µM)
- MIC Range (Escherichia coli): 0.008 to 4 µg/mL
- MIC50 (Streptococcus pyogenes): 0.15 µg/mL (≈ 0.315 µM)
- MIC90 (Streptococcus pyogenes): 0.15 µg/mL (≈ 0.315 µM)
- MIC Range (Streptococcus pyogenes): 0.008 to 0.015 µg/mL
- MIC50 (Klebsiella pneumoniae): 0.03 µg/mL (≈ 0.0631 µM)
- MIC90 (Klebsiella pneumoniae): 0.5 µg/mL (≈ 1.05 µM)
- MIC Range (Klebsiella pneumoniae): 0.008 to 1 µg/mL
- MIC50 (Streptococcus agalactiae): 0.06 µg/mL (≈ 0.126 µM)
- MIC90 (Streptococcus agalactiae): 0.06 µg/mL (≈ 0.126 µM)
- MIC Range (Streptococcus agalactiae): 0.03 to 0.06 µg/mL
- MIC50 (Proteus mirabilis): 0.008 µg/mL (≈ 0.0168 µM)
- MIC90 (Proteus mirabilis): 0.015 µg/mL (≈ 0.0315 µM)
- MIC Range (Proteus mirabilis): 0.008 to 0.015 µg/mL
- MIC50 (Streptococcus pneumoniae): 0.5 µg/mL (≈ 1.05 µM)
- MIC90 (Streptococcus pneumoniae): 1 µg/mL (≈ 2.1 µM)
- MIC Range (Streptococcus pneumoniae): 0.008 to 1 µg/mL
- MIC50 (Acinetobacter baumannii): 8 µg/mL (≈ 16.8 µM)
- MIC90 (Acinetobacter baumannii): 64 µg/mL (≈ 135 µM)
- MIC Range (Acinetobacter baumannii): 4 to 128 µg/mL
- MIC50 (Haemophilus influenzae): 0.12 µg/mL (≈ 0.252 µM)
- MIC90 (Haemophilus influenzae): 0.5 µg/mL (≈ 1.05 µM)
- MIC Range (Haemophilus influenzae): 0.12 to 1 µg/mL
- MIC50 [2]: 0.25 µg/mL (≈ 0.526 µM)
- MIC90 [2]: 0.25 µg/mL (≈ 0.526 µM)
- MIC Range [2]: 0.25 to 0.5 µg/mL
